Assay results from patent US4304781A, “Treatment of ulcers and hypertension” (John Wyeth & Brother Limited, priority 1978, dated 1981).

Key:
Format in all cases: in vivo
[1] = test system: stress-induced erosion; test: Stress-induced erosion test (Senay & Levine), anti-ulcer activity
Method: (§1) Anti-ulcer activity was determined by the stress-induced erosion test of Senay & Levine, Proc. Soc. Exp. Biol. Med., 124, 1221-1223 (1967) and anti-secretory activity by the test of H. Shay, D. Sun and H. Greenstin, Gastroenterology, 1954, 26, 903-913 as exemplified by Beattie et al J. Med. Chem., 20, 714 (1977). […] However, some compounds show activity in tests for anti-hypertensive activity.

[2] = test system: hypersecretion; test: Anti-secretory activity test (Shay et al); set-up: key to Anti-secretory, % change in Vol.: NS: Not Significant
Method: as §1

[3] = test system: Female rats rendered hypertensive; test: Antihypertensive activity, Procedure B: deoxycorticosterone acetate hypertensive rats (unilateral nephrectomy); details: 50 mg/kg orally
Method: Female rats are rendered hypertensive by unilateral nephrectomy and the s.c. implantation of a pellet containing 30 mg of deoxycorticosterone acetate. The drinking water is replaced by normal saline ad lib for the first four weeks following preparation. Blood pressures stabilise at a hypertensive level after 6 weeks. Systolic pressure is measured indirectly before dosing with a test compound using an E and M pneumatic pulse transducer and a Devices MX2 recorder. Groups of 4 rats are dosed orally with suspensions or solutions of the test compound in 0.5% hydroxypropyl-methyl-cellulose 0.9% saline vehicle. Blood pressures are recorded again at 2, 6 and 24 hours and the results, expressed as a percentage of the pre-dose values compared with those of a similar group of rats receiving vehicle alone.

Compound | inhibition in vivo at 100 mg/kg [1] | change in vivo at 10 mg/kg ([2]; 10 mg/kg, read-out: Anti-secretory, % change in Vol.) | change in vivo at 30 mg/kg ([2]; 30 mg/kg, read-out: Anti-secretory, % change in Vol.) | Antihypertensive activity (Procedure B) [3] | inhibition in vivo at 10 mg/kg ([1]; 10 mg/kg) | inhibition in vivo at 30 mg/kg ([1]; 30 mg/kg) | Anti-secretory, % change in Vol. ([2]; 30 mg/kg)
C[n+]1ccccc1SCc1cccc(Cl)c1 [Example 11, 1-Methyl-2-(3-chlorobenzylthio(pyridinium chloride] | 62% | -42% | -70% | inactive | – | – | –
C[n+]1ccccc1SCC1CCCCC1 [Example 12, 2-(Cyclohexylmethylthio)-1-methylpyridinium bromide] | 87% | – | – | inactive | 64% | 67% | NS
